Assay results as given in PMC11387447 (Pharmacological Reports, 2024).
Read-outs that look alike come from different tables or passages of the source. Marks after values point to notes of the source that are not given here.

What was measured:
[1] = IIIATO group: single oral ATO 20 mg/kg b.w. alone, rat plasma, n = 8; median (quartiles) or mean ± SD (CV %); adopted from previous study ref 12; cited from earlier work
[2] = set-up: method as in earlier work; settings: mice, repeated oral 10 mg/kg of REG for 5 consecutive days; ref 27 (Zopf et al.); cited from earlier work
[3] = Plasma pharmacokinetics of REG, M-2 and M-5 in rats after single oral REG with or without ATO (UPLC-MS/MS, non-compartmental analysis); format: in vivo, male Wistar rats; settings: for increase of AUC0–t / increase of AUC0–∞: IREG+ATO group compared to control IIREG group; for Cmax as share of the REG Cmax: single dose of REG 20 mg/kg; for AUC0–t / AUC0–∞ / Cmax / AUC(0-inf) / AUC(0-t): rat plasma; for AUC0–t / AUC0–∞ / Cmax / Tmax / Vd/F / AUC(0-inf) / AUC(0-t): n = 8
Protocol: Nonetheless, no other experimental conditions were changed.
Next, 20 μL of acetonitrile was added. The samples were mixed for 10 min and then centrifuged for 10 min at 8500 rpm. 50 μL of the resulting supernatant was filtered and used for further analysis. Each sample was analyzed twice, and the arithmetic mean was determined from the surface areas obtained in the chromatogram.
The LC–MS/MS system consisted of a Xevo TQ-S-micro triple quadrupole mass spectrometer coupled with a UPLC Acquity I-class PLUS (Waters Corporation, Milford, MA, USA), and the Waters Software MassLynx V4.2 SCN1017 Software. A Cortecs UPLC C18 column (2.1 × 50 mm, 1.6 μm) was equipped with an Acquity UPLC BEH C18 VanGuard pre-column (2.1 × 5 mm, 3/Pk, Waters Corporation). The injection volume was 5 μL. The temperature of the autosampler was 4 °C, and the temperature of the column was 40 °C. Mobile phase A was composed of 0.1% aqueous formic acid solution (v/v), and phase B of acetonitrile: methanol and 0.1% formic acid aqueous solution at 1:3 (v/v) ratio. The total run time was 5 min. […] Positive electrospray ionization (ESI) multiple reaction monitoring (MRM) experiments were conducted for sample analysis. The Xevo TQ-S Micro Mass spectrometer (Waters) was run in the positive ion mode, and configured in the multiple reaction monitoring mode, for the detection of REG, REG-N-oxide (M-2), N-desmethyl-REG-N-oxide (M-5), and isotope-labelled REG-d3.
The data were collected and processed using the MassLynx Software (V 4.2 SCN 1017, Waters). The following settings were used for the Xevo TQ-S Micro Mass spectrometer: source temperature—150 °C, desolvation temperature—600 °C, nitrogen gas flow—900 L/h, capillary voltage 3.6 kV. Transition ion pairs (parent m/z—daughter m/z) were identified, using the MRM mode, for the following compounds: 482.95–270.08 and 288.02 for REG; 499.00–304.01, 252.16, and 229.00 for M-2; 485.94–202.02 and 228.98 for M-5; and 486.02–273.07 for REG-d3 as an IS.

[4] = IIREG group: REG 20 mg/kg b.w. alone, median (quartiles)
[5] = IREG+ATO group: REG 20 mg/kg + ATO 20 mg/kg b.w., median (quartiles)
[6] = metabolite of REG, IIREG group: single oral REG 20 mg/kg b.w. alone, median (quartiles)
[7] = metabolite of REG, IREG+ATO group: single oral REG 20 mg/kg + ATO 20 mg/kg b.w., median (quartiles)
[8] = in the presence of ATO (IREG+ATO vs IIREG)
[9] = male, Wistar, rat, plasma, po, 20 mg/kg, IIREG group: single oral REG 20 mg/kg b.w. alone, median (quartiles)
[10] = male, Wistar, rat, plasma, po, 20 mg/kg, IREG+ATO group: single oral REG 20 mg/kg + ATO 20 mg/kg b.w., median (quartiles)

SMILES: CC(C)c1c(C(=O)Nc2ccccc2O)c(-c2ccccc2)c(-c2ccc(F)cc2)n1CC[C@@H](O)C[C@@H](O)CC(=O)O [2-OH ATO, orthohydroxy atorvastatin]
- AUC0–t [1]: 544.83 (448.90; 682.46) ng × h/mL
- Cmax [1]: 126.09 (87.49; 276.16) ng/mL

SMILES: CC(C)c1c(C(=O)Nc2ccc(O)cc2)c(-c2ccccc2)c(-c2ccc(F)cc2)n1CC[C@@H](O)C[C@@H](O)CC(=O)O [4-OH ATO, parahydroxy atorvastatin]
- AUC0–∞ [1]: 18.32 (12.89; 24.73) ng × h/mL

SMILES: CNC(=O)c1cc(Oc2ccc(NC(=O)Nc3ccc(Cl)c(C(F)(F)F)c3)c(F)c2)cc[n+]1[O-] [M-2, regorafenib N-oxide]
- Cmax as share of the REG Cmax [2]: 15.17%
- M-2/REG ratio AUC0–t [3, 4]: 0.26 (0.20; 0.31)
- M-2/REG ratio AUC0–∞ [3, 4]: 0.30 (0.26; 0.38)
- M-2/REG ratio Cmax [3, 4]: 0.18 (0.13; 0.28)
- increase of AUC0–t [3]: 4.5 fold
- increase of AUC0–∞ [3]: 3.6 fold
- Cmax as share of the REG Cmax ([3]; IREG+ATO group): 24.14%
- M-2/REG ratio AUC0–t [3, 5]: 0.31 (0.27; 0.45)
- M-2/REG ratio Cmax [3, 5]: 0.27 (0.20; 0.33)
- Gmean ratio (90% CI) of AUC0–t ([3]; IREG+ATO vs IIREG): 5.47 (4.30; 6.96)*
- Gmean ratio (90% CI) of AUC0–∞ ([3]; IREG+ATO vs IIREG): 4.55 (3.70; 5.60)*
- Gmean ratio (90% CI) of Cmax ([3]; IREG+ATO vs IIREG): 5.03 (3.82; 6.62)*
- Gmean ratio (90% CI) of M-2/REG ratio AUC0–t ([3]; IREG+ATO vs IIREG): 1.30 (0.96; 1.76)*
- Gmean ratio (90% CI) of M-2/REG ratio AUC0–∞ ([3]; IREG+ATO vs IIREG): 1.08 (0.81; 1.46)*
- Gmean ratio (90% CI) of M-2/REG ratio Cmax ([3]; IREG+ATO vs IIREG): 1.35 (0.60; 3.07)*
- Cmax as share of the REG Cmax ([3]; REG group): 15.28%
- AUC0–t [3, 6]: 9548.40 (8488.70; 11,642.31) ng × h/mL
- AUC0–∞ [3, 6]: 10,947.48 (9718.99; 12,781.14) ng × h/mL
- Cmax [3, 6]: 302.15 (249.90; 395.95) ng/mL
- AUC0–t [3, 7]: 52,182.11 (40,840.43; 64,989.90) ng × h/mL
- AUC0–∞ [3, 7]: 52,438.36 (41,030.58; 65,561.89) ng × h/mL
- Cmax [3, 7]: 1647.45 (1374.65; 1994.65) ng/mL

SMILES: NC(=O)c1cc(Oc2ccc(NC(=O)Nc3ccc(Cl)c(C(F)(F)F)c3)c(F)c2)cc[n+]1[O-] [M-5, N-desmethyl regorafenib N-oxide]
- Cmax as share of the REG Cmax [2]: 1.27%
- M-5/REG ratio Cmax [3, 4]: 0.01 (0.01; 0.02)
- increase of AUC0–t [3]: 6.0 fold
- increase of AUC0–∞ [3]: 6.0 fold
- Cmax as share of the REG Cmax ([3]; IREG+ATO group): 2.12%
- M-5/REG ratio Cmax [3, 5]: 0.02 (0.02; 0.02)
- Gmean ratio (90% CI) of AUC0–t ([3]; IREG+ATO vs IIREG): 7.13 (6.13; 8.29)*
- Gmean ratio (90% CI) of AUC0–∞ ([3]; IREG+ATO vs IIREG): 7.16 (6.21; 8.26)*
- Gmean ratio (90% CI) of Cmax ([3]; IREG+ATO vs IIREG): 5.65 (5.06; 6.31)*
- Gmean ratio (90% CI) of M-5/REG ratio AUC0–t ([3]; IREG+ATO vs IIREG): 1.70 (1.42; 2.03)
- Gmean ratio (90% CI) of M-5/REG ratio AUC0–∞ ([3]; IREG+ATO vs IIREG): 1.71 (1.43; 2.03)
- Gmean ratio (90% CI) of M-5/REG ratio Cmax ([3]; IREG+ATO vs IIREG): 1.52 (0.68; 3.39)*
- Cmax as share of the REG Cmax ([3]; REG group): 1.17%
- increase of M-5/REG ratio for AUC0–t ([3]; in the presence of ATO): 100.0%
- increase of M-5/REG ratio for AUC0–∞ ([3]; in the presence of ATO): 100.0%
- increase of M-5/REG ratio for Cmax ([3]; in the presence of ATO): 66.7%
- AUC0–t [3, 6]: 791.48 (703.15; 884.23) ng × h/mL
- AUC0–∞ [3, 6]: 833.10 (752.92; 929.13) ng × h/mL
- Cmax [3, 6]: 26.90 (23.40; 28.65) ng/mL
- AUC0–t [3, 7]: 5501.55 (5310.04; 5967.36) ng × h/mL
- AUC0–∞ [3, 7]: 5919.80 (5556.63; 6371.62) ng × h/mL
- Cmax [3, 7]: 150.05 (136.75; 155.40) ng/mL

SMILES: CNC(=O)c1cc(Oc2ccc(NC(=O)Nc3ccc(Cl)c(C(F)(F)F)c3)c(F)c2)ccn1 [REG, regorafenib, reference compound]
- increase of AUC0–t [3]: 3.2 fold
- increase of AUC0–∞ [3]: 3.2 fold
- Gmean ratio (90% CI) of AUC0–t ([3]; IREG+ATO vs IIREG): 4.20 (3.57; 4.95)*
- Gmean ratio (90% CI) of AUC0–∞ ([3]; IREG+ATO vs IIREG): 4.20 (3.56; 4.94)*
- Gmean ratio (90% CI) of Cl/F ([3]; IREG+ATO vs IIREG): 0.26 (0.22; 0.30)*
- Gmean ratio (90% CI) of Cmax ([3]; IREG+ATO vs IIREG): 3.72 (3.20; 4.32)*
- Gmean ratio (90% CI) of Vd/F ([3]; IREG+ATO vs IIREG): 0.28 (0.22; 0.37)*
- Gmean ratio (90% CI) of ka ([3]; IREG+ATO vs IIREG): 1.60 (1.09; 2.37)
- Gmean ratio (90% CI) of kel ([3]; IREG+ATO vs IIREG): 0.91 (0.75; 1.10)
- Gmean ratio (90% CI) of t1/2 ([3]; IREG+ATO vs IIREG): 1.10 (0.91; 1.33)
- Gmean ratio (90% CI) of tmax ([3]; IREG+ATO vs IIREG): 0.85 (0.63; 1.17)*
- differences in tmax, ka, kel, t0.5 ([3]; IREG+ATO vs IIREG): No statistically significant differences
- decrease of Cl/F [3, 8]: 72.7%
- decrease of Vd/F [3, 8]: 71.7%
- Tmax [3, 9]: 6 h
- Vd/F [3, 9]: 1.98 L
- AUC(0-inf) [3, 9]: 36000 ng·h/mL
- AUC(0-t) [3, 9]: 35800 ng·h/mL
- Cmax ([3]; male, Wistar, rat, plasma, po, 20 mg/kg, IIREG group: single oral REG 20 mg/kg b.w. alone, median (quartiles), read-out: Cmax): 1880 ng/mL
- Tmax [3, 10]: 5 h
- Vd/F [3, 10]: 0.51 L
- AUC(0-inf) [3, 10]: 163000 ng·h/mL
- AUC(0-t) [3, 10]: 163000 ng·h/mL
- Cmax ([3]; male, Wistar, rat, plasma, po, 20 mg/kg, IREG+ATO group: single oral REG 20 mg/kg + ATO 20 mg/kg b.w., median (quartiles), read-out: Cmax): 7290 ng/mL
